Row | Structure (SMILES) | pKa
1 | CS(=O)(=O)Nn1c(=O)[nH]c2cc(C(F)(F)F)c(N3CCOCC3)cc2c1=O | 8.35
2 | CCOC(=O)c1c(C)cc2nc(COC(=O)NCCO)n(-c3ccccc3S(=O)(=O)NC)c(=O)c2c1C | 10.6
3 | Cc1cc(C)nc(N2CCC3(CCCN(Cc4c[nH]c5ccccc45)C3=O)CC2)n1 | 4.94
4 | O=c1[nH]c(-c2ccc(C(F)(F)F)cc2)nc2c1CCOC2 | 7.87
5 | CC/C(=C(\c1ccccc1)c1ccc(/C=C/C(=O)[O-])cc1)c1ccccc1 | 4.26
6 | C[NH+](C)CC1CCc2cc(NC(=O)c3ccc(-c4ccc(F)cc4)cc3)ccc2C1 (configuration not stated) | 9.1
7 | COc1cc(C(C)=O)ccc1OCCC[NH+]1CCC(c2noc3cc(F)ccc23)CC1 | 8.2
8 | Cc1onc(-c2ccccc2)c1-c1ccc(S(N)(=O)=O)cc1 | 10
9 | Cn1c(-c2ccc(C[NH+](C)C)cc2)cc2onc(-c3ccccc3)c2c1=O | 8.38
10 | Cc1ncc(-c2ccc(C(F)(F)F)cc2)c(NC2C3CC4CC(C3)CC2C4)n1 (configuration not stated) | 6
11 | O=C([O-])COc1ccc(Cl)cc1C1CCCCC1 | 3.51
12 | [NH3+]C(CO)c1ccccc1 (configuration not stated) | 8.4
13 | N#Cc1ncc2cc(COc3cccc(CCC(=O)[O-])c3)n(CCC3CCCCC3)c2n1 | 4.5
14 | O=C(NCC[NH+]1CCC(n2c(=O)[nH]c3cc(F)ccc32)CC1)c1ccc(F)cc1 | 8.77
15 | C[C@@H](NC(=O)c1cc(C(=O)N[C@@H](Cc2ccccc2)[C@H](O)C[NH2+]C2CC2)cc(N(C)S(C)(=O)=O)c1)c1ccc(F)cc1 | 7.7
16 | CN1c2ccc(C#N)cc2N=C(c2ccc(C(=O)[O-])cc2)c2cc3c(cc21)C(C)(C)CCC3(C)C | 3.5
17 | Cc1nc[n+]([O-])c(C)c1C(=O)N1CCC(C)([NH+]2CCC(N(c3ccccc3)c3ccccc3)CC2)CC1 | 8.5
18 | Cc1ccc(-c2ncc(Cl)cc2-c2ccc(S(C)(=O)=O)cc2)cn1 | 4.63
19 | Cc1nc2cccc(C(F)(F)F)c2c(=O)n1-c1ccc(OC2CC[NH+](C3CCC3)CC2)cc1 | 9
20 | CNC(=O)c1c(NCC2CCC3(CCC3)CC2)nc(C#N)nc1OCC1CC[NH+](C)CC1 | 10.7
21 | CC(C)(C)Cn1c(Cc2ccc(NS(N)(=O)=O)cc2)cc2cnc(C#N)nc21 | 9.3

Row | Structure (SMILES) | pKa
22 | COc1ccnc(N2CCC3(CCCN(Cc4c[nH]c5ccccc45)C3=O)CC2)n1 | 5.28
23 | O=S(=O)(c1ccccc1)N(CC(F)(F)F)c1ccc(C(O)(C(F)(F)F)C(F)(F)F)cc1 | 8.2
24 | O=NC(=O)CCc1ccc(C[NH2+]CC23CC4CC(CC(C4)C2)C3)cc1 | 8.85
25 | CN1c2ccc(C#N)cc2N=C(c2ccc(C(=O)[O-])c(F)c2)c2cc3c(cc21)C(C)(C)CCC3(C)C | 3.4
26 | Cc1[nH]c2ccccc2c1C1CC[NH+](Cc2ccc(CCC(=O)N=O)cc2)C1 (configuration not stated) | 8.59
27 | COc1ccc(CNC(=O)[C@@H](NC(=O)[C@H](Cc2ccc(OC)c(OC)c2)NC(=O)Cc2cccc(Oc3ccccc3)c2)C(C)C)c(O)c1 | 10.9
28 | Cc1ncc(-c2ccc(C(F)(F)F)cc2)c(NC2CCCCCC2)n1 | 6
29 | CCN(Cc1ccccc1)c1ccccc1 | 5.8
30 | CC(=O)N1CCN(c2ccc(OCc3cc4cnc(C#N)nc4n3CCC3CCC(F)(F)CC3)cc2)CC1 | 3.6
31 | CN(CCO)c1cc2c(=O)n(NS(C)(=O)=O)c(=O)[nH]c2cc1C(F)(F)F | 8.3
32 | NS(=O)(=O)Oc1ccc2nc(C=C3C4CC5CC(C4)CC3C5)oc2c1 | 8.26
33 | Fc1ccc([C@H]2CC[NH2+]C[C@@H]2COc2ccc3c(c2)OCO3)cc1 | 9.5
34 | O=C([O-])c1ccc(-c2ccccc2)cc1 | 3.9
35 | Cc1c(-c2ccccc2)c(=O)oc2cc(O)ccc12 | 7.74
36 | O=C([O-])c1ccccc1Nc1ccc(CCc2ccc(Cl)c(Cl)c2)cc1 | 4.39
37 | Cc1cc(N2CCCC2)cc(/C=C/c2cccc(C(F)(F)F)c2)[nH+]1 | 9.43
38 | COc1cccc(OC)c1-c1ccc(C[C@H](NC(=O)c2c(Cl)cccc2Cl)C(=O)[O-])cc1 | 3.41
39 | CNC(=O)c1ccccc1Nc1nc(Nc2ccc(N3CCOCC3)cc2OC)ncc1Cl | 4.27
40 | CNc1nc2ccccc2n(C)c1=O | 4.25
41 | C/C(=C\c1ccccn1)[C@@H]1C[C@@H]2O[C@]2(C)CCC[C@H](C)[C@H](O)[C@@H](C)C(=O)C(C)(C)[C@@H](O)CC(=O)O1 | 5
42 | CC(=O)Nc1cccc2c1c(Sc1ccc(Cl)cc1)c(C)n2CC(=O)[O-] | 2.92

Row | Structure (SMILES) | pKa
43 | COc1ccc(C#CC(C)(C)[NH3+])cc1C(=O)c1ccc(Nc2ccc(F)cc2F)cc1 | 8.1
44 | Cn1c(=O)n(NS(C)(=O)=O)c(=O)c2ccc(Cl)cc21 | 6.8
45 | CC[C@H](C(=O)NO)[C@H](C(=O)N1CCCC[C@H]1C(=O)NC)c1ccc(Cl)cc1 | 9.2
46 | CC1CCCN(C(=O)c2ccc(Nc3ccc(Cl)cc3)nc2)C1 (configuration not stated) | 3.4
47 | O=C([O-])COc1ccc(Cl)cc1C1CCCCCC1 | 3.48
48 | CC(C)N(CCCCOCC(=O)[O-])c1cnc(-c2ccccc2)c(-c2ccccc2)n1 | 3.38
49 | CNC(=O)c1c(NCC2CCC3(CCC3)CC2)nc(C#N)nc1OCCC1CC[NH+](C)CC1 | 10.2
50 | Cc1ccc(Nc2ncc(C(=O)N3CCCCC3)cc2Cl)cn1 | 5.2
51 | COc1ccc(OC)c(S(=O)(=O)N2CCC(CN3CC[NH+](Cc4ccc(F)cc4)CC3)CC2)c1 | 7.32
52 | CC(=C(C#N)C#N)c1ccc2cc(N(C)CCF)ccc2c1 | 2.4
53 | CCOc1ccc2nc(S(N)(=O)=O)sc2c1 | 8.36
54 | CC(=O)N1CCN(c2ccc(OCc3cc4cnc(C#N)nc4n3CCC3CCCCC3)cc2)CC1 | 3.3
55 | Clc1ccc(-c2ccc(-c3ccnc(N4CC[NH2+]CC4)n3)s2)cc1 | 8.9
56 | Cc1nc(N2CCN(Cc3ccccc3)C2=O)sc1C(=O)NCc1ccccn1 | 4.28
57 | CCCCC(=O)N1CCC(CNc2nc3c(s2)CCOc2ccc(F)cc2-3)CC1 | 3.69
58 | CCCCCCCCc1ccc(CCC([NH3+])(CO)CO)cc1 | 8.52
59 | O=NC(=O)CCc1ccc(C[NH+]2CCC(c3c[nH]c4ccccc34)CC2)cc1 | 8.55
60 | O=c1[nH]c(-c2ccc(C(F)(F)F)cc2)nc2c1CSCC2 | 7.94
61 | Brc1ccc(C2CN3C=CSC3=[NH+]2)cc1 (configuration not stated) | 8.55
62 | CC(C)(C)c1ccc(S(=O)(=O)Nc2ccc(Cl)cc2C(=O)c2cc[n+]([O-])cc2)cc1 | 6.87
